How the values were obtained:
Experiment in all cases: relative viability (nuclei count vs DMSO), 5 days (fraction); higher = more cells survive
[1] = compound: CC(C)C[C@H](NC(=O)[C@H](CCc1ccccc1)NC(=O)CN1CCOCC1)C(=O)N[C@@H](Cc1ccccc1)C(=O)N[C@@H](CC(C)C)C(=O)[C@@]1(C)CO1 [Carfilzomib] + CC(=O)c1c(C)c2cnc(Nc3ccc(N4CCNCC4)cn3)nc2n(C2CCCC2)c1=O [Palbociclib] (partner 0.5 µM)
Outline: (§1)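 Each reported value is a median over duplicate plates. It expresses relative viability: treated-well nuclei count divided by vehicle-well nuclei count. Lung cancer cell lines in 1536-well plates were dosed by pin tool a day after seeding, alone with one drug or with a fixed anchor-drug dose plus five library-drug doses (not always all listed) in √10 steps, and nuclei were counted after 5 days.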

Crizotinib + OSI-027 = compound: C[C@@H](Oc1cc(-c2cnn(C3CCNCC3)c2)cnc1N)c1c(Cl)ccc(F)c1Cl [Crizotinib] + COc1cccc2cc(-c3nc([C@H]4CC[C@H](C(=O)O)CC4)n4ncnc(N)c34)[nH]c12 [OSI-027] (partner 0.5 µM)
Outline: as §1

Crizotinib + Pictilisib = compound: C[C@@H](Oc1cc(-c2cnn(C3CCNCC3)c2)cnc1N)c1c(Cl)ccc(F)c1Cl [Crizotinib] + CS(=O)(=O)N1CCN(Cc2cc3nc(-c4cccc5[nH]ncc45)nc(N4CCOCC4)c3s2)CC1 [Pictilisib] (partner 1 µM)
Outline: as §1

Crizotinib + Phenformin = compound: C[C@@H](Oc1cc(-c2cnn(C3CCNCC3)c2)cnc1N)c1c(Cl)ccc(F)c1Cl [Crizotinib] + N=C(N)NC(=N)NCCc1ccccc1 [Phenformin] (partner 250 µM)
Outline: as §1

Cell Line | relative viability ([1]; first compound 0.001 µM) | relative viability ([1]; first compound 0.003162 µM) | relative viability ([1]; first compound 0.01 µM) | relative viability ([1]; first compound 0.03162 µM) | relative viability ([1]; first compound 0.1 µM) | relative viability (Crizotinib + OSI-027; first compound 0.01 µM) | relative viability (Crizotinib + OSI-027; first compound 0.03162 µM) | relative viability (Crizotinib + OSI-027; first compound 0.1 µM) | relative viability (Crizotinib + OSI-027; first compound 0.3162 µM) | relative viability (Crizotinib + OSI-027; first compound 1 µM) | relative viability (Crizotinib + Pictilisib; first compound 0.01 µM) | relative viability (Crizotinib + Pictilisib; first compound 0.03162 µM) | relative viability (Crizotinib + Pictilisib; first compound 0.1 µM) | relative viability (Crizotinib + Pictilisib; first compound 0.3162 µM) | relative viability (Crizotinib + Pictilisib; first compound 1 µM) | relative viability (Crizotinib + Phenformin; first compound 0.01 µM) | relative viability (Crizotinib + Phenformin; first compound 0.03162 µM) | relative viability (Crizotinib + Phenformin; first compound 0.1 µM) | relative viability (Crizotinib + Phenformin; first compound 0.3162 µM) | relative viability (Crizotinib + Phenformin; first compound 1 µM)
NCI-H661 | 0.423 | 0.414 | 0.472 | 0.398 | 0.318 | 0.606 | 0.74 | 0.771 | 0.711 | 0.663 | 0.379 | 0.349 | 0.383 | 0.378 | 0.36 | 0.257 | 0.269 | 0.285 | 0.266 | 0.264
NCI-H727 | 0.575 | 0.607 | 0.628 | 0.584 | 0.417 | – | 0.561 | 0.774 | – | 0.551 | 0.368 | 0.389 | 0.561 | 0.285 | 0.29 | – | 0.608 | 0.755 | – | 0.511
NCI-H838 | 0.209 | 0.226 | 0.268 | 0.193 | 0.102 | 0.348 | 0.369 | 0.409 | 0.393 | 0.392 | 0.396 | 0.5 | 0.483 | 0.426 | 0.496 | 0.553 | 0.604 | 0.556 | 0.516 | 0.526
NCI-H1355 | 0.41 | 0.419 | 0.432 | 0.422 | 0.139 | 0.358 | 0.44 | 0.394 | 0.369 | 0.361 | 0.45 | 0.52 | 0.413 | 0.297 | 0.434 | 0.431 | 0.497 | 0.522 | 0.382 | 0.442
NCI-H1395 | – | 0.676 | 0.635 | 0.497 | 0.31 | 0.601 | 0.631 | 0.623 | 0.496 | 0.563 | 0.621 | 0.557 | 0.73 | 0.906 | 0.542 | 0.435 | 0.464 | 0.493 | 0.427 | 0.382
NCI-H1437 | 0.318 | 0.329 | 0.415 | 0.296 | 0.213 | 0.758 | 0.901 | 0.824 | – | – | 0.311 | 0.461 | 0.389 | 0.375 | 0.439 | 0.278 | 0.306 | 0.3 | 0.272 | 0.345
NCI-H1650 | 0.306 | 0.371 | 0.209 | 0.11 | 0.188 | 0.554 | 0.624 | 0.585 | 0.54 | 0.569 | 0.516 | 0.584 | 0.573 | 0.535 | 0.559 | 0.411 | 0.401 | 0.387 | 0.377 | 0.389
NCI-H1651 | 0.521 | 0.549 | 0.485 | 0.151 | 0.0991 | 0.546 | 0.852 | 0.727 | 0.73 | 0.8 | 0.437 | 0.65 | 0.514 | 0.559 | 0.572 | 0.294 | 0.356 | 0.292 | 0.287 | 0.336
NCI-H1666 | 0.674 | 0.67 | 0.651 | 0.615 | 0.488 | 0.8 | 0.893 | 0.837 | 0.903 | 0.855 | 0.483 | 0.484 | 0.325 | 0.553 | 0.3 | 0.514 | 0.598 | 0.583 | 0.558 | 0.546

Reference: the supplement of paper PMC10307832
